{"source": "paper PMC8552062", "about": "“Contributions of UDP-Glucuronosyltransferases to Human Hepatic and Intestinal Metabolism of Ticagrelor and Inhibition of UGTs and Cytochrome P450 Enzymes by Ticagrelor and its Glucuronidated Metabolite” (Frontiers in Pharmacology, 2021)", "assay_type_in_all_cases": "in vitro ADME", "design_in_all_cases": "purchased BD Gentest; host or cells: baculovirus-infected insect cells", "key": {"[1]": {"biological_target": "T1, UGT1A3 (Homo sapiens, UniProt P35503)", "T1 sequence (P35503 29-534)": "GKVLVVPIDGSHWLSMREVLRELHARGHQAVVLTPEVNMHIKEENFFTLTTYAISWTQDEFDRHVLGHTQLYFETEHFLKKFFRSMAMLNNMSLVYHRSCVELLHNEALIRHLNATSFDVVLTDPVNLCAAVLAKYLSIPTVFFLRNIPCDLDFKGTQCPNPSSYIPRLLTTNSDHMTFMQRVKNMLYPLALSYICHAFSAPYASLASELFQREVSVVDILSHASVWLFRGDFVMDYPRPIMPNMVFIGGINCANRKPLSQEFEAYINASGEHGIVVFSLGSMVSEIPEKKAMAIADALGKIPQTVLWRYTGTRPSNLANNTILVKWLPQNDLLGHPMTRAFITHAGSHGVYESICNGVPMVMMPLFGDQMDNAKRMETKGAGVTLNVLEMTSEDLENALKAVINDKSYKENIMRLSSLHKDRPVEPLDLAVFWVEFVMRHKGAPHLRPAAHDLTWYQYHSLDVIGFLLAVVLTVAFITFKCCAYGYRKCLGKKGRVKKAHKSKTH", "test": "Ticagrelor glucuronidation by recombinant human UGT1A3", "details": "recombinant human UGT1A3, pH 7.4", "description": "(§1) Ticagrelor glucuronidation was investigated in an in vitro incubation system by using HLM, HIM, and recombinant human UGTs. The incubation system consisted of enzyme sources (HLM, HIM, or human recombinant UGTs), various concentrations of ticagrelor (dissolved in 50% methanol, 1% v/v, 1, 2, 5, 10, 20, 50, 100, 200, 500 μM of final concentration), alamethicin (50 μg/mg protein), 5 mM MgCl2, 100 mM tris-HCL buffer (pH 7.4), and 5 mM UDPGA in a total volume of 100 μl. Alamethicin is a pore-forming polypeptide used to activate UGTs in HLM and HIM ([Fisher et al., 2000]). Preliminary studies were conducted to determine the optimal protein concentrations and incubation times. Linear conditions of ticagrelor-O-Glu formation from ticagrelor, i.e., HLM, 0.2 mg of protein/ml and 60 min, HIM, 0.2 mg of protein/ml and 60 min, and recombinant human UGTs, 0.2 mg of protein/ml and 60 min were selected. The incubation mixture without UDPGA was placed on ice for 15 min to activate UGT by alamethicin. […]\n(§2) Kinetic analyses were performed using the mean values of triplicate determinations with either pooled HLM, HIM, or recombinant human UGTs. All data were analyzed by nonlinear regression analysis using the GraphPad Prism 6 (GraphPad Software Inc., CA, United States). […] Intrinsic clearance (CLint) was calculated by dividing Vmax by Km."}, "[2]": {"biological_target": "T2, UGT1A4 (Homo sapiens, UniProt P22310)", "T2 sequence (P22310 29-534)": "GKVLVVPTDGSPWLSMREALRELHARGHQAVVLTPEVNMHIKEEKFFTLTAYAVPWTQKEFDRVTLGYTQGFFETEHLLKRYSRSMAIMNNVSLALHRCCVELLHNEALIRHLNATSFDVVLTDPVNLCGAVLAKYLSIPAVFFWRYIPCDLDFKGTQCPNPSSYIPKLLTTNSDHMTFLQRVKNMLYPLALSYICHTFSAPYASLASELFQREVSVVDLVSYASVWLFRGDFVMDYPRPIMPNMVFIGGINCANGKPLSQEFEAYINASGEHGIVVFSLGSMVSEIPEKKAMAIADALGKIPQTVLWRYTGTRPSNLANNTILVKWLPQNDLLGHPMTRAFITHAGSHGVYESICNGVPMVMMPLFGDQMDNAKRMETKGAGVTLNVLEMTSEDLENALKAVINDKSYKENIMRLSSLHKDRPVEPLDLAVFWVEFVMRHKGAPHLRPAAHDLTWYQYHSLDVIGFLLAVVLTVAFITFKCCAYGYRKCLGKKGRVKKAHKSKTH", "test": "Ticagrelor glucuronidation by recombinant human UGT1A4", "details": "recombinant human UGT1A4, pH 7.4", "description": "as §1, §2"}, "[3]": {"biological_target": "T3, UGT2B7 (Homo sapiens, UniProt P16662)", "T3 sequence (P16662 24-529)": "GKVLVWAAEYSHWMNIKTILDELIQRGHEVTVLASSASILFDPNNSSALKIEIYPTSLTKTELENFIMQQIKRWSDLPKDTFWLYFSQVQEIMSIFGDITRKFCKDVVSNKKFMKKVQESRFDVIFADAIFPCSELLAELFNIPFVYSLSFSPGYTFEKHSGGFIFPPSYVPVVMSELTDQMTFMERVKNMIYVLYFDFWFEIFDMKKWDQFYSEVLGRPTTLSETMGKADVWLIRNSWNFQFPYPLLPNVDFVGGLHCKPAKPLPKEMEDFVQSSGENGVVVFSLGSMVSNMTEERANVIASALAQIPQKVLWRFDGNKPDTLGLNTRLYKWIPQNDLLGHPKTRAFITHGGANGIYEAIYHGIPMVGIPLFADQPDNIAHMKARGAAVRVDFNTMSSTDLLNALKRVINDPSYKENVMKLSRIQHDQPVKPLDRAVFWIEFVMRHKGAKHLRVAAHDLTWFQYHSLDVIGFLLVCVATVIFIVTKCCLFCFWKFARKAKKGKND", "test": "Ticagrelor glucuronidation by recombinant human UGT2B7", "details": "recombinant human UGT2B7, pH 7.4", "description": "as §1, §2"}}, "data": [{"smiles": "CCCSc1nc(N[C@@H]2C[C@H]2c2ccc(F)c(F)c2)c2nnn([C@@H]3C[C@H](OCCO)[C@@H](O)[C@H]3O)c2n1", "note": "[Ticagrelor]", "values": [{"measurement": "microsomal CLint", "setting": "[1]", "result": 0.04, "unit": "µL/min/mg"}, {"measurement": "microsomal CLint", "setting": "[2]", "result": 0.04, "unit": "µL/min/mg"}, {"measurement": "microsomal CLint", "setting": "[3]", "result": 0.02, "unit": "µL/min/mg"}]}]}
